Laboratory results: ChEMBL document CHEMBL2177014 (J Med Chem, 2012)
Where a name gives a salt, the structure may show the parent alone.

Columns and labels:
[1] = Displacement of [3H]MK-801 from NMDAR in Sprague-Dawley rat cerebral cortex homogenates after 2 hrs by liquid scintillation counting; type: tissue-based
[2] = molecular target: T1, Acetylcholinesterase (Rattus norvegicus, UniProt P37136); assay: biochemical
T1 sequence (P37136 whole entry): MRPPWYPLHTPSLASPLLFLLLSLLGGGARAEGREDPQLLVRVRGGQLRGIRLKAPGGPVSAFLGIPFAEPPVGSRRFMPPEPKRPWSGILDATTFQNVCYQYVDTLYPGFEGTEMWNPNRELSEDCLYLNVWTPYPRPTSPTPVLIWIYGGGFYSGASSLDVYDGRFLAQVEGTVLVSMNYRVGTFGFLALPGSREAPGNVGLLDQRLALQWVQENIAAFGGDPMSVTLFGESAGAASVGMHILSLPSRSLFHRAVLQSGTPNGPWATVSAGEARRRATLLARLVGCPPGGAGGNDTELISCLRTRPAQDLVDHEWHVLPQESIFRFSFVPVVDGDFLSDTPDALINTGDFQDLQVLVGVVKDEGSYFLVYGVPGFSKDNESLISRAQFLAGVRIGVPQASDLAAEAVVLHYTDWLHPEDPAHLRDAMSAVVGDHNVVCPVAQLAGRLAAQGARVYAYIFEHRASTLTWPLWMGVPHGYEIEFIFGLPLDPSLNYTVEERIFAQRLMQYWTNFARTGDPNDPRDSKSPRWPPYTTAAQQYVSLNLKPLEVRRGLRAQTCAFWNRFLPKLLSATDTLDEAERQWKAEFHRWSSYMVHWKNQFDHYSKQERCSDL
Description: Inhibition of AChE in Wistar rat brain homogenates using acetylthiocholine iodide and DTNB as substrate after 10 mins by Ellman method

[3] = molecular target: Glutamate receptor ionotropic, NMDA 2B (Rattus norvegicus, UniProt Q00960); assay: Displacement of [3H]Ifenprodil from NMDAR-2B in Sprague-Dawley rat frontal cortex homogenates after 2 hrs by liquid scintillation counting; type: tissue-based
Chain of Glutamate receptor ionotropic, NMDA 2B (Q00960 whole entry): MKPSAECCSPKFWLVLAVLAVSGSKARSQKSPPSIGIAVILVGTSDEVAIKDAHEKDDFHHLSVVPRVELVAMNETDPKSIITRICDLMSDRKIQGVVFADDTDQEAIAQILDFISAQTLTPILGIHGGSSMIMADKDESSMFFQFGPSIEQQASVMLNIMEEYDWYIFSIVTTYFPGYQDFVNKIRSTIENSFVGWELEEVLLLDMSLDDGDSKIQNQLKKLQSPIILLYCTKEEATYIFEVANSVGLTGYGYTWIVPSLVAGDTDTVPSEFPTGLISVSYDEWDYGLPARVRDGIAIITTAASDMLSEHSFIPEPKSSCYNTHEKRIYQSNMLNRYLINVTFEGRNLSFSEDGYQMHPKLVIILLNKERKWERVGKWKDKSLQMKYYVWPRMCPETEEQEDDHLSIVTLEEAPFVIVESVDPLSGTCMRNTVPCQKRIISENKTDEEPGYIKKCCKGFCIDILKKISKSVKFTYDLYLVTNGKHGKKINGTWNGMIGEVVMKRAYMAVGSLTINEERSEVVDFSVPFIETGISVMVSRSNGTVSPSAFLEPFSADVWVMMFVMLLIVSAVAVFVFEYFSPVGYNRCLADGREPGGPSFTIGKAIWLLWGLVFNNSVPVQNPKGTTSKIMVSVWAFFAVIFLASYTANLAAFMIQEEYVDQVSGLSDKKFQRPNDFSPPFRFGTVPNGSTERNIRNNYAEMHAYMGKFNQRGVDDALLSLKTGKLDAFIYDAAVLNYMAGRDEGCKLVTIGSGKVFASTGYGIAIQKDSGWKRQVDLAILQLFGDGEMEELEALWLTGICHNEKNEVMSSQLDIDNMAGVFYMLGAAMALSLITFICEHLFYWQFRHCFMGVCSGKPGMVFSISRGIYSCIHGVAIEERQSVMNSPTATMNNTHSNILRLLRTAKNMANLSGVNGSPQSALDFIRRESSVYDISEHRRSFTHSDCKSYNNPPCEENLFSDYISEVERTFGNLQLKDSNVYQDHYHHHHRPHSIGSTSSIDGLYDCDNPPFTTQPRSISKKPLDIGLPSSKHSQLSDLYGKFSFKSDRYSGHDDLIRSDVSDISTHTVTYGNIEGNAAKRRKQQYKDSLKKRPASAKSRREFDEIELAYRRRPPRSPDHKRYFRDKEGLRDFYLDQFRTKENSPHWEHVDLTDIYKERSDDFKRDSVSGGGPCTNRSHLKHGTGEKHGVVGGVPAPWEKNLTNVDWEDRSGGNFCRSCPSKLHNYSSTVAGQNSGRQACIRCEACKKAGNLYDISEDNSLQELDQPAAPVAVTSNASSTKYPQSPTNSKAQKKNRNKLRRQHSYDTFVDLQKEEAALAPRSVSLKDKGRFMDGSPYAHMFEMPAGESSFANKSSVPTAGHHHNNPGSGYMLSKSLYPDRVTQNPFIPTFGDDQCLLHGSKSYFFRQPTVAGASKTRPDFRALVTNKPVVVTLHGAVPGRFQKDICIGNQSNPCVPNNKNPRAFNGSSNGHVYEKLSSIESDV

[4] = Lipophilicity, log P of the compound; type: physicochemical; settings: octanol/water
[5] = system: SH-SY5Y; assay: Neuroprotective activity in human SH-SY5Y cells assessed as protection against NMDA-induced cell death after 6 hrs by MTS assay; type: functional, cell-based
[6] = organism: Rattus norvegicus; assay: Displacement of [3H]MK-801 from NMDAR in Sprague-Dawley rat cerebral cortex homogenates at 10 uM after 2 hrs by liquid scintillation counting; type: tissue-based
[7] = molecular target: T2, Acetylcholinesterase (Rattus norvegicus) (UniProt P37136); assay: Inhibition of AChE in Wistar rat brain homogenates using acetylthiocholine iodide and DTNB as substrate at 10 uM after 10 mins by Ellman method; type: tissue-based
T2 sequence (whole entry): T1 sequence (P37136 whole entry)

[8] = Binding affinity to NMDAR in Sprague-Dawley rat cerebral cortex homogenates; type: tissue-based

Row | SMILES | Ki [1] [nM] | IC50 [2] [nM] | Ki [3] [nM] | logP [4] | IC50 [5] [nM] | inhibition [6] [%] | inhibition [7] [%] | Kd [8] [nM]
1 | COc1ccc2c3c1O[C@H]1C[C@@H](O)C=C[C@@]31CCN(CCCC(=O)NC13CC4CC(C)(CC(C)(C4)C1)C3)C2 | > 10000 | 55.7 | > 100000 | – | – | – | – | –
2 | COc1ccc2c3c1O[C@H]1C[C@@H](O)C=C[C@@]31CCN(CCCCCNC13CC4CC(C)(CC(C)(C4)C1)C3)C2 | > 10000 | 4.31 | 40900 | 4.46 | – | – | – | –
3 | COc1ccc2c3c1O[C@H]1C[C@@H](O)C=C[C@@]31CCN(CCCCCCCCNC13CC4CC(C)(CC(C)(C4)C1)C3)C2 | 4990 | 5.36 | 2900 | 5.9 | – | – | – | –
4 | COc1ccc2c3c1O[C@H]1C[C@@H](O)C=C[C@@]31CCN(CCCCNC13CC4CC(C)(CC(C)(C4)C1)C3)C2 | 2320 | 696 | > 100000 | 3.98 | – | – | – | –
5 | COc1ccc2c3c1O[C@H]1C[C@@H](O)C=C[C@@]31CCN(C)C2 [GALANTAMINE] | > 10000 | – | > 100000 | – | 747 | – | – | –
6 | COc1ccc2c3c1O[C@H]1C[C@@H](O)C=C[C@@]31CCN(CCCCC(=O)NC13CC4CC(C)(CC(C)(C4)C1)C3)C2 | > 10000 | 369 | > 100000 | – | – | – | – | –
7 | COc1ccc2c3c1O[C@H]1C[C@@H](O)C=C[C@@]31CCN(CCCNCCCNC13CC4CC(C)(CC(C)(C4)C1)C3)C2 | 5410 | 168 | 3320 | – | – | – | – | –
8 | COc1ccc2c3c1O[C@H]1C[C@@H](O)C=C[C@@]31CCN(CCCCCC(=O)NC13CC4CC(C)(CC(C)(C4)C1)C3)C2 | – | 11.3 | 9760 | – | 0.37 | 33.9 | – | –
9 | COc1ccc2c3c1O[C@H]1C[C@@H](O)C=C[C@@]31CCN(CCOCCOCCNC13CC4CC(C)(CC(C)(C4)C1)C3)C2 | > 10000 | 80.9 | > 100000 | – | > 10000 | – | – | –
10 | COc1ccc2c3c1O[C@H]1C[C@@H](O)C=C[C@@]31CCN(CCCCCCCCN(C)C13CC4CC(C)(CC(C)(C4)C1)C3)C2 | > 10000 | 0.52 | > 100000 | – | – | – | – | –
11 | COc1ccc2c3c1O[C@H]1C[C@@H](O)C=C[C@@]31CCN(CCOCCNC13CC4CC(C)(CC(C)(C4)C1)C3)C2 | > 10000 | 3920 | > 100000 | – | – | – | – | –
12 | CC12CC3CC(C)(C1)CC(N)(C3)C2 [MEMANTINE] | 1160 | – | – | – | 718 | – | 8.5 | –
13 | CC(C(O)c1ccc(O)cc1)N1CCC(Cc2ccccc2)CC1 (configuration not stated) [IFENPRODIL] | 3080 | – | – | – | – | – | – | –
14 | COc1ccc2c3c1O[C@H]1C[C@@H](O)C=C[C@@]31CCN(CCCCCCCN(C)C13CC4CC(C)(CC(C)(C4)C1)C3)C2 | > 10000 | 1.33 | > 100000 | – | – | – | – | –
15 | COc1ccc2c3c1O[C@H]1C[C@@H](O)C=C[C@@]31CCN(CCSCCNC13CC4CC(C)(CC(C)(C4)C1)C3)C2 | > 10000 | 131 | > 100000 | – | – | – | – | –
16 | COc1ccc2c3c1O[C@H]1C[C@@H](O)C=C[C@@]31CCN(CCCCCCN(C)C13CC4CC(C)(CC(C)(C4)C1)C3)C2 | > 10000 | 1.03 | 5250 | – | – | – | – | –
17 | COc1ccc2c3c1O[C@H]1C[C@@H](O)C=C[C@@]31CCN(CCCCCCCCCNC13CC4CC(C)(CC(C)(C4)C1)C3)C2 | 4630 | 2.32 | > 100000 | 6.38 | – | – | – | –
18 | C[C@]12N[C@H](Cc3ccccc31)c1ccccc12 [DIZOCILPINE MALEATE] | – | – | – | – | 7.91 | – | – | 4
19 | COc1ccc2c3c1O[C@H]1C[C@@H](O)C=C[C@@]31CCN(CCCCCCNC13CC4CC(C)(CC(C)(C4)C1)C3)C2 [MEMAGAL] | 4600 | 1.16 | 4600 | 4.94 | 0.28 | – | – | –
20 | COc1ccc2c3c1O[C@H]1C[C@@H](O)C=C[C@@]31CCN(CCCCCCCNC13CC4CC(C)(CC(C)(C4)C1)C3)C2 | 10000 | 1.79 | 11000 | 5.42 | 0.21 | – | – | –
